Our source for the IC50, Activity and dose excreted values is ChEMBL document CHEMBL4342440, “Potential cytotoxic and anti-metastatic effects of berberine on gynaecological cancers with drug-associated resistance” (Eur J Med Chem, 2020).

Series [1] concerns HeLa. Briefly: Cytotoxicity against human HeLa cells measured after 48 hrs by SRB assay. Type of series: functional, cell-based. Background: The SRB assay estimates cell density from bound dye.
Series [2] has as its system Ca-Ski. Kind of series: Cytotoxicity against human CaSki cells measured after 48 hrs by SRB assay. In kind it is functional, cell-based.
For series [3], the system named is HeLa. Briefly: Cytotoxicity against human HeLa cells measured after 48 hrs by MTT assay. Type of series: functional, cell-based.
In series [4] the test system is Ca-Ski. Briefly: Cytotoxicity against human CaSki cells measured after 48 hrs by MTT assay. In kind it is functional, cell-based.
The test system of the next series is Vero. Kind of series: Cytotoxicity against African green monkey Vero cells measured after 48 hrs by MTT assay. Type of series: cell-based. The conditions noted are these: Chlorocebus sabaeus.
Another series concerns HeLa 229. Kind of series: Cytotoxicity against human HeLa 229 cells measured after 48 hrs by MTT assay. Type of series: functional, cell-based. The note with it: HeLa 229, 48 h.
The test system of series [5] is HeLa. Briefly: Induction of apoptosis in human HeLa cells measured at 20 mg/L after 48 hrs relative to control. In kind it is functional.
Series [6] has as its system HeLa. Kind of series: Induction of apoptosis in human HeLa cells measured at 40 mg/L after 48 hrs relative to control. In kind it is functional.
Series [7] can be described thus: Drug excretion in rat urine. In kind it is ADME, tissue-based. The conditions noted are these: read-out: Drug excretion.
The nature of series [8]: Drug excretion in rat feces. Type of series: ADME, tissue-based. The note with it: faeces, read-out: Drug excretion.
A short description of series [9]: Drug excretion in rat bile. Type of series: ADME, tissue-based. The note with it: read-out: Drug excretion.

Usually IC50 stands for the concentration needed to halve the response being measured. In the case of `COc1cc(CN2CCN(c3ccc(C)cc3C)CC2)c2cc3[n+](cc2c1O)CCc1cc2c(cc1-3)OCO2.[Cl-]`, the values for the IC50 in the series with HeLa [1] and in the series on Ca-Ski [2] were 4.35 to 6.32 µg/mL and 3.41 to 6.08 µg/mL, respectively.

As to `COc1cc(CN2CCN(c3ccc(Cl)cc3)CC2)c2cc3[n+](cc2c1O)CCc1cc2c(cc1-3)OCO2.[Cl-]`, the IC50 with HeLa [3] and with Ca-Ski [4] was less than 6 µg/mL each time.

Turning to `COc1cc(CN2CCN(c3ccc(F)cc3F)CC2)c2cc3[n+](cc2c1O)CCc1cc2c(cc1-3)OCO2.[Cl-]`, the IC50 was 4.35 to 6.32 µg/mL in the series on HeLa [1] and 3.41 to 6.08 µg/mL in the series with Ca-Ski [2].

For `COc1cc(CN2CCN(c3ccccc3Cl)CC2)c2cc3[n+](cc2c1O)CCc1cc2c(cc1-3)OCO2.[Cl-]`, the IC50 in the series with HeLa [3] and with Ca-Ski [4] was less than 6 µg/mL in each case.

Regarding `COc1ccc(N2CCN(Cc3cc(OC)c(O)c4c[n+]5c(cc34)-c3cc4c(cc3CC5)OCO4)CC2)c(OC)c1.[Cl-]`, the IC50 in the series with HeLa [1] is 4.35 to 6.32 µg/mL; with Ca-Ski [2], 3.41 to 6.08 µg/mL.

On to `COc1cc(CN2CCN(c3ccc(OC(F)(F)F)cc3)CC2)c2cc3[n+](cc2c1O)CCc1cc2c(cc1-3)OCO2.[Cl-]`, for which the IC50 with HeLa [3] and in the series with Ca-Ski [4] was less than 6 µg/mL in each case.

Regarding `COc1cc(CN2CCN(c3ccccc3F)CC2)c2cc3[n+](cc2c1O)CCc1cc2c(cc1-3)OCO2.[Cl-]`, the IC50 with HeLa [3] and in the series with Ca-Ski [4] was less than 6 µg/mL throughout.

For the compound `COc1cc(CN2CCN(c3ccc(C)cc3)CC2)c2cc3[n+](cc2c1O)CCc1cc2c(cc1-3)OCO2.[Cl-]`, the IC50 in the series on HeLa [3] and with Ca-Ski [4] was less than 6 µg/mL in each case.

In the case of `COc1cc(CN2CCN(c3cccc(Cl)c3)CC2)c2cc3[n+](cc2c1O)CCc1cc2c(cc1-3)OCO2.[Cl-]`, the IC50 in the series on HeLa [3] and in the series with Ca-Ski [4] was less than 6 µg/mL throughout.

For the compound `COc1cc(CN2CCN(c3ccccc3[N+](=O)[O-])CC2)c2cc3[n+](cc2c1O)CCc1cc2c(cc1-3)OCO2.[Cl-]`, the IC50 in the series on HeLa [3] and with Ca-Ski [4] was less than 6 µg/mL throughout.

Consider `COc1cc(CN2CCN(c3ccc(C(F)(F)F)cc3)CC2)c2cc3[n+](cc2c1O)CCc1cc2c(cc1-3)OCO2.[Cl-]`, for which the IC50 in the series with HeLa [3] and with Ca-Ski [4] was less than 6 µg/mL throughout.

Take `COc1cc(CN2CCN(c3ccc(F)cc3)CC2)c2cc3[n+](cc2c1O)CCc1cc2c(cc1-3)OCO2.[Cl-]`: the IC50 with HeLa [3] and with Ca-Ski [4] was less than 6 µg/mL in each case.

Regarding `COc1cc(CN2CCN(c3cccc(Cl)c3Cl)CC2)c2cc3[n+](cc2c1O)CCc1cc2c(cc1-3)OCO2.[Cl-]`, the IC50 is 4.35 to 6.32 µg/mL in the series with HeLa [1] and 3.41 to 6.08 µg/mL in the series on Ca-Ski [2].

On to `COc1cc(CN2CCN(c3ccc([N+](=O)[O-])cc3)CC2)c2cc3[n+](cc2c1O)CCc1cc2c(cc1-3)OCO2.[Cl-]`, for which the IC50 in the series on HeLa [3] and in the series on Ca-Ski [4] was less than 6 µg/mL each time.

As for `COc1ccc2cc3[n+](cc2c1OCCCCCNNc1nc2ccccc2s1)CCc1cc2c(cc1-3)OCO2.[Cl-]`, the figures for the IC50 with HeLa [1] and with Ca-Ski [2] were 5.47 µg/mL and 5.31 µg/mL, respectively.

`COc1ccc2nc(NCCCCCOc3c(OC)ccc4cc5[n+](cc34)CCc3cc4c(cc3-5)OCO4)sc2c1.[Cl-]`: the IC50 came out at 5.47 µg/mL with HeLa [1] and 5.31 µg/mL in the series with Ca-Ski [2].

As for `COc1cc(CN2CCN(c3ccc(Cl)c(Cl)c3)CC2)c2cc3[n+](cc2c1O)CCc1cc2c(cc1-3)OCO2.[Cl-]`, the IC50 in the series with HeLa [1] lay within 4.35 to 6.32 µg/mL; in the series on Ca-Ski [2], 3.41 to 6.08 µg/mL.

For the compound `COc1ccc2cc3[n+](cc2c1OCCCCCNc1nc2ccccc2s1)CCc1cc2c(cc1-3)OCO2.[Cl-]`, the IC50 with HeLa [1] was 5.47 µg/mL; in the series on Ca-Ski [2], 5.31 µg/mL.

With `COc1ccc2cc3[n+](cc2c1OCCCCCNc1nc2ccc(Cl)cc2s1)CCc1cc2c(cc1-3)OCO2.[Cl-]`, the half-inhibitory concentration (IC50) came out at 5.47 µg/mL with HeLa [1] and 5.31 µg/mL with Ca-Ski [2].

On to `COc1ccc2cc3[n+](cc2c1OCCCCCNc1nc2ccc(C(=O)O)cc2s1)CCc1cc2c(cc1-3)OCO2.[Cl-]`, for which the figures for the IC50 with HeLa [1] and with Ca-Ski [2] were 5.47 µg/mL and 5.31 µg/mL, respectively.

Consider `COc1cc(CN2CCN(c3cc(Cl)cc(Cl)c3)CC2)c2cc3[n+](cc2c1O)CCc1cc2c(cc1-3)OCO2.[Cl-]`, for which the IC50 in the series with HeLa [1] was 4.35 to 6.32 µg/mL; with Ca-Ski [2], 3.41 to 6.08 µg/mL.

With `COc1ccc2cc3[n+](cc2c1OCCCCCNc1nc2ccc(C)cc2s1)CCc1cc2c(cc1-3)OCO2.[Cl-]`, the IC50 in the series on HeLa [1] amounted to 5.47 µg/mL; in the series with Ca-Ski [2], 5.31 µg/mL.

For `COc1ccc2cc3[n+](cc2c1OCCCCCNc1nc2ccc(C(F)(F)F)cc2s1)CCc1cc2c(cc1-3)OCO2.[Cl-]`, the IC50 came out at 5.47 µg/mL with HeLa [1] and 5.31 µg/mL in the series on Ca-Ski [2].

On to `COc1cc(CN2CCN(c3cccc(C)c3C)CC2)c2cc3[n+](cc2c1O)CCc1cc2c(cc1-3)OCO2.[Cl-]`, for which the IC50 in the series on HeLa [1] was 4.35 to 6.32 µg/mL; in the series with Ca-Ski [2], 3.41 to 6.08 µg/mL.

On to `COc1cc(CN2CCN(c3cccc(F)c3F)CC2)c2cc3[n+](cc2c1O)CCc1cc2c(cc1-3)OCO2.[Cl-]`, for which the IC50 with HeLa [1] was in the range of 4.35 to 6.32 µg/mL; in the series with Ca-Ski [2], 3.41 to 6.08 µg/mL.

As to `COc1ccc2cc3[n+](cc2c1OCCCCCNc1nc2c(F)cc(F)cc2s1)CCc1cc2c(cc1-3)OCO2.[Cl-]`, the IC50 with HeLa [1] is 5.47 µg/mL; in the series with Ca-Ski [2], 5.31 µg/mL.

Consider `COc1ccc2cc3[n+](cc2c1OCCCCCNc1nc2ccc(C#N)cc2s1)CCc1cc2c(cc1-3)OCO2.[Cl-]`, for which the IC50 in the series on HeLa [1] worked out at 5.47 µg/mL; in the series on Ca-Ski [2], 5.31 µg/mL.

Consider `COc1ccc2cc3[n+](cc2c1OCCCCCNc1nc2ccc(F)cc2s1)CCc1cc2c(cc1-3)OCO2.[Cl-]`, for which the IC50 worked out at 5.47 µg/mL with HeLa [1] and 5.31 µg/mL in the series on Ca-Ski [2].

Consider `COc1cc(CN2CCN(c3ccc(Cl)cc3Cl)CC2)c2cc3[n+](cc2c1O)CCc1cc2c(cc1-3)OCO2.[Cl-]`, for which the IC50 in the series with HeLa [1] was in the range of 4.35 to 6.32 µg/mL; in the series on Ca-Ski [2], 3.41 to 6.08 µg/mL.

For the compound `COc1ccc2cc3[n+](cc2c1OCCCCCNc1nc2ccc(I)cc2s1)CCc1cc2c(cc1-3)OCO2.[Cl-]`, the IC50 is 5.47 µg/mL with HeLa [1] and 5.31 µg/mL in the series on Ca-Ski [2].

Consider `COc1ccc2cc3[n+](cc2c1OCCCCCNc1nc2ccc(Br)cc2s1)CCc1cc2c(cc1-3)OCO2.[Cl-]`, for which the IC50 in the series on HeLa [1] was 5.47 µg/mL; in the series on Ca-Ski [2], 5.31 µg/mL.

For the compound `CCOc1ccc2nc(NCCCCCOc3c(OC)ccc4cc5[n+](cc34)CCc3cc4c(cc3-5)OCO4)sc2c1.[Cl-]`, the IC50 came out at 5.47 µg/mL in the series on HeLa [1] and 5.31 µg/mL in the series on Ca-Ski [2].

Take `COc1ccc2cc3[n+](cc2c1OCCCCCNc1nc2ccc([N+](=O)[O-])cc2s1)CCc1cc2c(cc1-3)OCO2.[Cl-]`: the IC50 in the series with HeLa [1] worked out at 5.47 µg/mL; with Ca-Ski [2] it was 5.31 µg/mL.

Regarding `COc1ccc2cc3[n+](cc2c1OC)CCc1cc2c(cc1-3)OCO2` [BERBERINE], the IC50 is 12.1 µg/mL in the series on HeLa [3], 71.1 µg/mL in the series on Vero and 42.9 µM with HeLa 229. Moreover, the values for the Activity in the series on HeLa [5] and in the series on HeLa [6] were 16.7% and 29.6%, respectively. Further, the dose excreted in series [7] is 0.0939%; in [8], 22.7%; in [9], 22.8%.

On to `COc1c(O)ccc2cc3[n+](cc12)CCc1cc2c(cc1-3)OCO2.[Cl-]` [THALIFENDINE], for which, in series [9], the dose excreted is 83%.
